System: logarithmic E. coli cells
Assay: Preservation survival and stability of logarithmic E. coli cells loaded in vitro before foam drying
Assay type: cell-based
Description: (3) Loading of fresh electrocompetent E. coli cells before preservation: When applicable, one aliquot of the cell concentrate (3.2 ml of cells in PBS buffer, approx. 2×10^10 cfu/ml) was mixed with 0.8 ml of 50% methyl-glucoside (MAG; 10% final concentration) and incubated at 37° C. for 30 minutes (in vitro loading). A second aliquot (3.2 ml of the cell concentrate) was mixed with 0.8 ml of PBS buffer and incubated on ice for 30 minutes (control, unloaded cells). Similar to loading with MAG, the cells were loaded with 2-deoxyglucose (2-DOG) as described in Example 5 infra.
(4) Preservation of electrocompetent E. coli cells: The cells (resuspended in PBS buffer or on 20% sucrose) were mixed with an equal mass of preservation solution consisting of 45% 2:1 sucrose:raffinose or 45% 4:1 sucrose:MAG on ice. Altematively, the cell pellets were resuspended directly in 22.5% sucrose:raffinose or 22.5% 4:1 sucrose:MAG. The 0.5 g aliquots were distributed in 5 ml glass serum vials or 0.2 g aliquots were distributed in 1.2 ml glass serum vials. To determine the survival in preservation solution before drying, cell-containing mixtures were diluted in PBS buffer containing 20% sucrose and appropriate dilutions were spread plated in duplicate on L-agar plates.
The samples were dried by foam formation. The mixtures were foamed at 0° C. and kept at that temperature until foam formation occurred. After foam was well formed, shelf temperature was increased to 20° C. and drying continued overnight (at least 12 hours).
(5) Assaying the preserved E. coli cells: Dried samples were rehydrated at room temperature. 1 ml of rehydration solution (20% sucrose) was added to the 5 ml vials and 0.2 ml was added to the 1.2 ml vials. For the determination of preservation survival, rehydrated cells were diluted and spread plated in duplicate on L-agar plates. Plates were incubated at 37° C. overnight and colonies were counted the following day.
Bacterial culture was grown until OD550=0.5 was reached (mid-log growth stage). The cell concentrates were prepared as described previously. Control cells, which were not loaded, were incubated on ice for 30 minutes. Cell concentrates were incubated with different amounts (0.15-1%, 5%, 10% and 15%) of glucose and glucose nonmetabolizable analogs at 37° C. for 30 minutes (loading). These mixtures were preserved as described previously.
Accumulation of MAG in the cells prior to drying enhances preservation of logarithmic E. coli cells. Two cell concentrates (harvested at mid-log growth stage) were prepared as described previously. To induce uptake of MAG, 0.5% glucose was added to the growth medium (“induced culture”). Both concentrates were incubated with 10% MAG at 37° C. for 30 minutes (loading). When loading was completed, one concentrate was diluted 100-fold in PBS buffer and incubated at 37° C. for an additional 30 minutes to induce expulsion of the pre-accumulated MAG. Both concentrates were preserved as described previously.
Mid-logarithmic culture was prepared as described previously. 0.5% glucose was added to the growth medium (“induced cells”). The culture was concentrated 10-fold and the concentrates were incubated for 30 minutes with 10% MAG at different temperatures (0, 20, 40, and 60° C.). The mixtures were preserved as described previously.
Effect of incubation time on accumulation of MAG in logarithmic E. coli cells. Cell concentrates were prepared as described previously (0.5% glucose was added to the growth medium) and incubated with 10% MAG at 37° C. for 0, 2.5, 5, 15, 30, and 60 minutes. The mixtures were preserved as described previously.
Effect of growth stage on accumulation of MAG in E. coli cells. E. coli cultures were grown in L-broth with 0.5% glucose as described previously and harvested at OD550=0.1 (early-log), 0.5 (mid-log), 1.0 (late-log) and 2.0 (stationary cells). The cells in each culture were concentrated and split in two aliquots. […]

With `O=CC[C@@H](O)[C@H](O)[C@H](O)CO` [Sample 2-DOG, 2-deoxyglucose] the survived drying (mid-logarithmic cells loaded with 0.1-1% at 37° C. for 30 minutes) was 9-12%, the survived drying (mid-logarithmic cells loaded with 5% at 37° C. for 30 minutes) was 20% and the survived drying (mid-logarithmic cells loaded with 10% at 37° C. for 30 minutes) was 16%. It also gave a survived drying (mid-logarithmic cells loaded with 15% at 37° C. for 30 minutes) of 20%.
